Measurements reported in patent USRE49850E1, “N-(pyridin-2-yl)-4-(thiazol-5-yl)pyrimidin-2-amine derivatives as therapeutic compounds” (AUCENTRA THERAPEUTICS PTY LTD, priority 2015, dated 2024).
Like-named read-outs stand apart in the source and are kept apart here.

Tests used:
MDA-MB-453 = experiment: Cell viability assay (MTT, solid tumour cell line) MDA-MB-453; format: cell-based, human; conditions: read-out: Anti-proliferative activity GI50 MDA-MB-453
Description: (§1) Compounds from Example 1 were subjected to a standard MTT (3-(4,5-dimethylthiazol-2-yl)-2,5-diphenyltetrazolium bromide) and resazurin assays on solid tumour cell lines and leukemia cell lines, respectively, as previously reported (Wang S et al., J Med Chem 47:1662-1675, 2004 and Diab S. et al. CheMedChem 9:962-972, 2014).

CDK6D3 = molecular target: T1, CDK6D3 (Homo sapiens, UniProt Q00534); experiment: Kinase assay CDK6/D3 (radiometric or ADP Glo); format: biochemical; conditions: apparent Ki calculated from Km (ATP) and IC50; read-out: CDK inhibition Ki CDK6D3
T1 construct: purchased Eurofins Pharma Discovery or Reaction Biology Corporation (service)
T1 sequence (Q00534 whole entry): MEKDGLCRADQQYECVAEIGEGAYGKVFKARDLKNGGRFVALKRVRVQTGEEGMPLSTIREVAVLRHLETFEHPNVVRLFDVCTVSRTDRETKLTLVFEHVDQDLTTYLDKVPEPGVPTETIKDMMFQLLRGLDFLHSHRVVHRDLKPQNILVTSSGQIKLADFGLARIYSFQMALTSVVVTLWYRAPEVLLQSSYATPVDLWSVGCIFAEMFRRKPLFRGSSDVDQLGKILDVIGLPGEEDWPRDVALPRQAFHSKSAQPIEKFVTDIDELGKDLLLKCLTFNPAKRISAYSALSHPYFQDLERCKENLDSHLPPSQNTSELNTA
T1 sequence (P30281 whole entry partner): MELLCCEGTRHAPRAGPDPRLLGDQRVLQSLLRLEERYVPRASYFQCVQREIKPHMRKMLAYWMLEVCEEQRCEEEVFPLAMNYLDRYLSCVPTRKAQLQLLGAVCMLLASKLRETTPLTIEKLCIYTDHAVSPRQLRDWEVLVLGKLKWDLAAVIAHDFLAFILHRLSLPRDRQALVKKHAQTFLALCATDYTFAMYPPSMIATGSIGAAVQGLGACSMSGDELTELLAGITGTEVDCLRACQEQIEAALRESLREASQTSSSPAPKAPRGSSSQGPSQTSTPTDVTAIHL
Experimental: (§2) Eurofins Pharma Discovery or Reaction Biology Corporation Kinase Profiler services were used to measure inhibition of CDKs and other kinases by radiometric assay. Inhibition of CDK4/D1, CDK6/D3 and CDK9/T1 were also determined in-house using ADP Glo Kinase assays (Promega Corporation, Madison, USA). Briefly, the kinase reaction for CDK4/D1 and CDK6/D3 was performed with kinase reaction buffer ([…] Tris base pH 7.5, 20 mM MgCl2, 0.4 mM DTT), 0.1 mg/ml BSA and RB-CTF substrate (retinoblastoma protein1 C-terminal fraction). For CDK9/CyclinT1, the kinase reaction was performed with standard assay buffer and Kinase Dilution Buffer and RBER-IRStide substrate. Serial dilutions of 1:3 were prepared for test compounds for 10 concentrations (from 10 μM to 0.5 nM). The kinase reactions were started by addition of ATP, incubated for 40 min at 37° C. and then stopped by adding 10 μL of ADP Glo reagent. After incubation at room temperature in the dark for 40 min, 20 μL of kinase detection reagent was added per well and incubated for 40 min. Luminescence was measured using an EnVision Multilabel plate reader (PerkinElmer, Buckinghamshire, UK). Positive and negative controls were perfonned in the presence and absence of CDK kinases, respectively. Half-maximal inhibition (IC50) values were calculated using a 4-parameter logistic non-linear regression model with Graphpad prism (Version 6.0). Apparent inhibition constants (Ki) values were calculated from Km (ATP) and IC50 values for the respective kinases.

CDK1B = CDK1B (Homo sapiens, UniProt P06493); experiment: Kinase assay CDK1B (radiometric profiling service); format: biochemical; conditions: apparent Ki calculated from Km (ATP) and IC50; read-out: CDK inhibition Ki CDK1B
Sequence of CDK1B (P06493 whole entry): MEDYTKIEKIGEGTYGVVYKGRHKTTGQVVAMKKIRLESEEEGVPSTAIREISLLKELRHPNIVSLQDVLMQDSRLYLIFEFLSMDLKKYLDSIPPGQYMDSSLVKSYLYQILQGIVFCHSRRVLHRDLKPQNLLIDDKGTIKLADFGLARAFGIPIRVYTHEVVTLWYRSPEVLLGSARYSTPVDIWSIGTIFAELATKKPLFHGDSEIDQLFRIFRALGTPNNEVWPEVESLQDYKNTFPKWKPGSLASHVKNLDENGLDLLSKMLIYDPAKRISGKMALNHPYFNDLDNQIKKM
Sequence of CDK1B (P14635 whole entry partner): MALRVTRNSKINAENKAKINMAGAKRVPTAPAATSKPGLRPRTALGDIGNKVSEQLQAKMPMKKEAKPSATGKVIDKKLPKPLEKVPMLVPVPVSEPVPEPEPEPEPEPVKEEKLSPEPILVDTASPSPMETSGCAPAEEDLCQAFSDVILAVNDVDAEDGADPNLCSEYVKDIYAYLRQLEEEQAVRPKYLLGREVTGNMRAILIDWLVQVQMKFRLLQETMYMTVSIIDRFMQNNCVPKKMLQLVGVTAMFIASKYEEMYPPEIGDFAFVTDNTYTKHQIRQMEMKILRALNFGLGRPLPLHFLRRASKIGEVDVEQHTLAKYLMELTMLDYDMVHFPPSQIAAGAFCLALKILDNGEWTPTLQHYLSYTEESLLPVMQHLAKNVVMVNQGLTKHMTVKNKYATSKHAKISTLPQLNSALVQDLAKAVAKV
Experimental: as §2

CDK 2A = CDK 2A (Homo sapiens, UniProt P24941); experiment: Kinase assay CDK2A (radiometric profiling service); format: biochemical; conditions: apparent Ki calculated from Km (ATP) and IC50; read-out: CDK inhibition Ki CDK 2A
Experimental: as §2

MV4-11 = experiment: Cell viability assay (resazurin, leukemia cell line) MV4-11; format: cell-based, human; conditions: read-out: Anti-proliferative activity GI50 MV4-11
Description: as §1

CDK7H = CDK7H (Homo sapiens, UniProt P50613); experiment: Kinase assay CDK7H (radiometric profiling service); format: biochemical; conditions: apparent Ki calculated from Km (ATP) and IC50; read-out: CDK inhibition Ki CDK7H
Sequence of CDK7H (P50613 whole entry): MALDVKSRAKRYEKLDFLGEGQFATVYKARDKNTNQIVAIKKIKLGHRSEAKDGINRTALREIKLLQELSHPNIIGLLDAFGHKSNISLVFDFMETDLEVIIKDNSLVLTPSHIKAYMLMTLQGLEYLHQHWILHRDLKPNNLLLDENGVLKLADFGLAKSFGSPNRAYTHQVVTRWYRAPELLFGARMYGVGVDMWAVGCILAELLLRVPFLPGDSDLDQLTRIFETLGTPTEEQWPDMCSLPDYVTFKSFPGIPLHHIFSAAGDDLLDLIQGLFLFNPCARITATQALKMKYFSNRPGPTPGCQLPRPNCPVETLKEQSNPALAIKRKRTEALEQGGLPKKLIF
Sequence of CDK7H (P51946 whole entry partner): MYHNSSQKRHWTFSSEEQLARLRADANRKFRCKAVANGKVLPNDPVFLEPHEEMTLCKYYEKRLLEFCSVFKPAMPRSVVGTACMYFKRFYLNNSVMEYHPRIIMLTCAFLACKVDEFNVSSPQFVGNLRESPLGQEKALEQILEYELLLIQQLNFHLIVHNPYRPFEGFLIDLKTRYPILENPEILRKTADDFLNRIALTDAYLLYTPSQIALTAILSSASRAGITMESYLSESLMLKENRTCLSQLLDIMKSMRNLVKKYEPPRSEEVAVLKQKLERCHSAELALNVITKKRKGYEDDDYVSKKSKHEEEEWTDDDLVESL
Sequence of CDK7H (P51948 whole entry partner): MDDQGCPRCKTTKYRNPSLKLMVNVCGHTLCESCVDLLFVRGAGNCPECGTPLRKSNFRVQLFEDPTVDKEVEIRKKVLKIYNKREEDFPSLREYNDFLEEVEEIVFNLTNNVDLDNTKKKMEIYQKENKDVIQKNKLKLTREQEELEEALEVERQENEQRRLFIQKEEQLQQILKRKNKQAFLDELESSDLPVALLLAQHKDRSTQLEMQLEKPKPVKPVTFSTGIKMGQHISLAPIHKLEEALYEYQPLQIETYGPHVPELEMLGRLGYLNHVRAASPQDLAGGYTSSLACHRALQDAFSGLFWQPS
Experimental: as §2

CDK4D1 = molecular target: T2, CDK4D1 (Homo sapiens, UniProt P11802); experiment: Kinase assay CDK4/D1 (radiometric or ADP Glo); format: biochemical; conditions: apparent Ki calculated from Km (ATP) and IC50; read-out: CDK inhibition Ki CDK4D1
T2 construct: purchased Eurofins Pharma Discovery or Reaction Biology Corporation (service)
T2 sequence (P11802 whole entry): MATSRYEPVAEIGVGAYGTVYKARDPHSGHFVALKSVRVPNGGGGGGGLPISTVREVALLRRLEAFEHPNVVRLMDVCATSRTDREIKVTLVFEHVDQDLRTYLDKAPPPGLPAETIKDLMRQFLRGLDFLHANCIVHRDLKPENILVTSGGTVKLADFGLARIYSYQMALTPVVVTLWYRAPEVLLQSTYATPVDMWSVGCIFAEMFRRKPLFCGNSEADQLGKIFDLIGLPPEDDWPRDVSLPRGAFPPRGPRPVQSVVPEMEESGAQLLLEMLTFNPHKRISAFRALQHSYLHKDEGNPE
T2 sequence (P24385 whole entry partner): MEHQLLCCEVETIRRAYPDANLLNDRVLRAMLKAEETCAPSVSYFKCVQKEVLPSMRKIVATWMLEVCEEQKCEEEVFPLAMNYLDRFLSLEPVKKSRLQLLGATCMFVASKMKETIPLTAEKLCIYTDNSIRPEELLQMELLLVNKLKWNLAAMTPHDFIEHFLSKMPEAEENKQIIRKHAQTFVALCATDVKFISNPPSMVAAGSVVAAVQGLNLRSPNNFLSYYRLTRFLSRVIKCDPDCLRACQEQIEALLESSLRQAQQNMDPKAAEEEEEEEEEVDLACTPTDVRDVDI
Experimental: as §2

CDK9T1 = molecular target: T3, CDK9T1 (Homo sapiens, UniProt P50750); experiment: Kinase assay CDK9/T1 (radiometric or ADP Glo); format: biochemical; conditions: apparent Ki calculated from Km (ATP) and IC50; read-out: CDK inhibition Ki CDK9T1
T3 construct: purchased Eurofins Pharma Discovery or Reaction Biology Corporation (service)
T3 sequence (P50750 whole entry): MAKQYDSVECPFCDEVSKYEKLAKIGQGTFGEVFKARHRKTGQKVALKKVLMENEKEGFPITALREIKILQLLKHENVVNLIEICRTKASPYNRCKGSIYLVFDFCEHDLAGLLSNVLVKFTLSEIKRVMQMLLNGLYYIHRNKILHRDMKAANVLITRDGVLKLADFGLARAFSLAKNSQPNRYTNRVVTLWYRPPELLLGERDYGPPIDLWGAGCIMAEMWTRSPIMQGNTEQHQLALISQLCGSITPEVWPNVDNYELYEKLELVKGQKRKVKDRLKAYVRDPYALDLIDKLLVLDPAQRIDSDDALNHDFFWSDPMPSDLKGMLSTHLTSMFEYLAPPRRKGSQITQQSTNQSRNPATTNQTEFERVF
T3 sequence (O60563 whole entry partner): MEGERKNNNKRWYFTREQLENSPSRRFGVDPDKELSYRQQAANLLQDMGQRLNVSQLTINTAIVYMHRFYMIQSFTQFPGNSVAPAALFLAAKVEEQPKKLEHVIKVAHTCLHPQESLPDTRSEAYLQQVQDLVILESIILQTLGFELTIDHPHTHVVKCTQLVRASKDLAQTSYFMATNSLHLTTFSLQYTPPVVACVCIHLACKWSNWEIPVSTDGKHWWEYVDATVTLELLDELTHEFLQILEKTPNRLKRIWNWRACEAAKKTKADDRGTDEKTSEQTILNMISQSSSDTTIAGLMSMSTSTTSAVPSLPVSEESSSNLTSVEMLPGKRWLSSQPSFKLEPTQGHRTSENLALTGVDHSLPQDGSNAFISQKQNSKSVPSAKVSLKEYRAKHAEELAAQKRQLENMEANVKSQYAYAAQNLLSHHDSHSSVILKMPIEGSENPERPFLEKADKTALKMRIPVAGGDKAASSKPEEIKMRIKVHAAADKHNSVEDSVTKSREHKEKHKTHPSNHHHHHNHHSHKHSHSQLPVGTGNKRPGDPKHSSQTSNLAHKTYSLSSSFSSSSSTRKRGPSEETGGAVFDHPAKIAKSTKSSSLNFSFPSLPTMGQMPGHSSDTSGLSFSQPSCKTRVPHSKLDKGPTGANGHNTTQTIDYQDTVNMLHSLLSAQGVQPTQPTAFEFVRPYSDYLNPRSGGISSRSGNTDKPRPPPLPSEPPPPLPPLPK
Experimental: as §2

Row | Ki (CDK6D3) [nM] | Ki (CDK1B) [nM] | Ki (CDK 2A) [nM] | Ki (CDK7H) [nM] | Ki (CDK4D1) [nM] | Ki (CDK9T1) [nM] | GI50 (MDA-MB-453; Homo sapiens, MDA-MB-453, 72 h) [nM] | GI50 (MV4-11; Homo sapiens, MV4-11, 72 h) [nM] | Compound | GI50 (MDA-MB-453; 72 h) [nM] | GI50 (MV4-11; 72 h) [nM]
1 | 590 | > 5000 | > 5000 | > 5000 | 81 | > 5000 | > 10000 | 1100 ± 345 | CC(=O)N1CCN(c2ccc(Nc3nccc(-c4sc(C)nc4C)n3)nc2)CC1 [Compound 1, 1-(4-(6-((4-(2,4-dimethylthiazol-5-yl)pyrimidin-2-yl)amino)pyridin-3-yl)piperazin-1-yl)ethan-1-one] | – | –
2 | 245 | > 5000 | > 5000 | > 5000 | 55 | > 5000 | > 10000 | 1021 ± 7 | Cc1nc(C)c(-c2ccnc(Nc3ccc(N4CCNCC4)cn3)n2)s1 [Compound 2, 4-(2,4-dimethylthiazol-5-yl)-N-(5-(piperazin-1-yl)pyridin-2-yl)pyrimidin-2-amine] | – | –
3 | 170 | > 5000 | 1930 | > 5000 | 30 | > 5000 | 378 ± 29 | 53 ± 3 | Cc1nc(C)c(-c2ccnc(Nc3ccc(N4CCN(C)CC4)cn3)n2)s1 [Compound 3, 4-(2,4-dimethylthiazol-5-yl)-N-(5-(4-methylpiperazin-1-yl)pyridin-2-yl)pyrimidin-2-amine] | – | –
4 | 117 | > 5000 | > 5000 | > 5000 | 31 | 2040 | 1970 ± 404 | 296 ± 287 | Cc1nc(C)c(-c2nc(Nc3ccc(N4CCNCC4)cn3)ncc2C#N)s1 [Compound 4, 4-(2,4-dimethylthiazol-5-yl)-2-((5-(piperazin-1-yl)pyridin-2-yl)amino)pyrimidine-5-carbonitrile] | – | –
5 | 27 | > 5000 | > 5000 | > 5000 | 70 | > 5000 | 914 ± 98 | 500 ± 247 | Cc1nc(C)c(-c2nc(Nc3ccc(N4CCN(C)CC4)cn3)ncc2C#N)s1 [Compound 5, 4-(2,4-dimethylthiazol-5-yl)-2-((5-(4-methylpiperazin-1-yl)pyridin-2-yl)amino)pyrimidine-5-carbonitrile] | – | –
6 | 201 | > 5000 | > 5000 | > 5000 | 119 | > 5000 | > 10000 | 2130 ± 969 | CC(=O)N1CCN(c2ccc(Nc3ncc(C#N)c(-c4sc(C)nc4C)n3)nc2)CC1 [Compound 6, 2-((5-(4-acetylpiperazin-1-yl)pyridin-2-yl)amino)-4-(2,4-dimethylthiazol-5-yl)pyrimidine-5-carbonitrile] | – | –
7 | 237 | > 5000 | 1710 | > 5000 | 59 | > 5000 | 3860 ± 220 | 606 ± 150 | CCc1nc(C)c(-c2ccnc(Nc3ccc(N4CCNCC4)cn3)n2)s1 [Compound 7, 4-(2-ethyl-4-methylthiazol-5-yl)-N-(5-(piperazin-1-yl)pyridin-2-yl)pyrimidin-2-amine] | – | –
8 | 980 | > 5000 | 1820 | > 5000 | 24 | > 5000 | 3010 ± 705 | 750 ± 246 | CCc1nc(C)c(-c2ccnc(Nc3ccc(N4CCN(C)CC4)cn3)n2)s1 [Compound 8, 4-(2-ethyl-4-methylthiazol-5-yl)-N-(5-(4-methylpiperazin-1-yl)pyridin-2-yl)pyrimidin-2-amine] | – | –
9 | 30 | 3740 | 241 | > 5000 | 11 | > 5000 | 703 ± 71 | 29 ± 19 | Cc1nc(C(C)C)sc1-c1ccnc(Nc2ccc(N3CCNCC3)cn2)n1 [Compound 13, 4-(2-isopropyl-4-methylthiazol-5-yl)-N-(5-(piperazin-1-yl)pyridin-2-yl)pyrimidin-2-amine] | – | –
10 | 29 | 3410 | 287 | > 5000 | 10 | 4180 | > 10000 | 596 ± 231 | Cc1nc(C(C)C)sc1-c1ccnc(Nc2ccc(N3CCN(C)CC3)cn2)n1 [Compound 14, 4-(2-isopropyl-4-methylthiazol-5-yl)-N-(5-(4-methylpiperazin-1-yl)pyridin-2-yl)pyrimidin-2-amine] | – | –
11 | 25 | 3100 | 465 | > 5000 | 5 | > 5000 | 542 ± 65 | 63 ± 26 | CCN1CCN(c2ccc(Nc3nccc(-c4sc(C(C)C)nc4C)n3)nc2)CC1 [Compound 15, N-(5-(4-ethylpiperazin-1-yl)pyridin-2-yl)-4-(2-isopropyl-4-methylthiazol-5-yl)pyrimidin-2-amine] | – | –
12 | 209 | 4850 | 246 | > 5000 | 62 | > 5000 | > 10000 | 457 ± 122 | CC(=O)N1CCN(c2ccc(Nc3nccc(-c4sc(C(C)C)nc4C)n3)nc2)CC1 [Compound 16, 1-(4-(6-((4-(2-isopropyl-4-methylthiazol-5-yl)pyrimidin-2-yl)amino)pyridin-3-yl)piperazin-1-yl)ethan-1-one] | – | –
13 | 36 | > 5000 | > 5000 | > 5000 | 16 | 999 | – | 84 ± 8 | CNc1nc(C)c(-c2nc(Nc3ccc(N4CCN(Cc5ccccc5)CC4)cn3)ncc2C#N)s1 [Compound 40, 2-((5-(4-benzylpiperazin-1-yl)pyridin-2-yl)amino)-4-(4-methyl-2-(methylamino)thiazol-5-yl)pyrimidine-5-carbonitrile] | – | –
14 | 225 | 133 | 37 | 67 | 6 | 117 | – | 38 ± 6 | CNc1nc(C)c(-c2ccnc(Nc3ccc(N4CCN(Cc5ccccc5)CC4)cc3)n2)s1 [Compound 41, 5-(2-((4-(4-benzylpiperazin-1-yl)phenyl)amino)pyrimidin-4-yl)-N,4-dimethylthiazol-2-amine] | – | –
15 | 36 | 89 | 17 | 101 | 1 | 34 | – | 37 ± 6 | CNc1nc(C)c(-c2nc(Nc3ccc(N4CCN(Cc5ccccc5)CC4)cc3)ncc2C#N)s1 [Compound 42, 2-((4-(4-benzylpiperazin-1-yl)phenyl)amino)-4-(4-methyl-2-(methylamino)thiazol-5-yl)pyrimidine-5-carbonitrile] | – | –
16 | 14 | > 5000 | – | 630 | 3 | 3570 | 622 ± 208 | – | CCN1CCN(Cc2ccc(Nc3ncc(F)c(-c4sc(NC5CCCC5)nc4C)n3)nc2)CC1 [Compound 84, N-cyclopentyl-5-(2-((5-((4-ethylpiperazin-1-yl)methyl)pyridin-2-yl)amino)-5-fluoropyrimidin-4-yl)-4-methylthiazol-2-amine] | – | –

Row | Compound | Ki (CDK6D3) [nM] | Ki (CDK1B) [nM] | Ki (CDK 2A) [nM] | Ki (CDK7H) [nM] | Ki (CDK4D1) [nM] | Ki (CDK9T1) [nM] | GI50 (MDA-MB-453; Homo sapiens, MDA-MB-453, 72 h) [nM] | GI50 (MV4-11; Homo sapiens, MV4-11, 72 h) [nM] | GI50 (MDA-MB-453; 72 h) [nM] | GI50 (MV4-11; 72 h) [nM]
17 | 5-(2-((5-(4-Ethylpiperazin-1-yl)pyridin-2-yl)amino)-5-fluoropyrimidin-4-yl)-N,4-dimethylthiazol-2-amine [Compound 32] | 20 | > 5000 | 665 | > 5000 | 5 | 2920 | – | – | 528 ± 46 | 65 ± 2
